# Source: PubChem BioAssay AID330 (DTP/NCI, 2004)
# Values joined by “and” are separate entries in the source; they are usually repeats but may differ in a detail not shown here. Identical values can stand only once. Inconclusive results and toxic doses are left out.
# System: P388 leukemia ip, CD2F1 mice, survival T/C
# Assay: NCI In Vivo Anticancer Drug Screen. Data for tumor model P388 Leukemia (intraperitoneal) in CD2F1 (CDF1) mice
# Settings: endpoint: median survival time, higher = longer survival
# In short: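 Mice carrying the transplanted tumor received test compound or vehicle. Survival was recorded in each group, and the value is the treated-group measurement divided by that of the vehicle-treated control group.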
# [1] = dose: 50.0 mg/kg/injection, schedule: Q01DX009 (ip), vehicle: saline with Tween-80
# [2] = dose: 50.0 mg/kg/injection, schedule: Q01DX005 (ip), vehicle: saline with Tween-80
# [3] = dose: 100.0 mg/kg/injection, schedule: Q01DX005 (ip), vehicle: saline with Tween-80
# [4] = dose: 200.0 mg/kg/injection, schedule: Q01DX005 (ip), vehicle: saline with Tween-80
# [5] = dose: 60.0 mg/kg/injection, schedule: Q01DX005 (ip), vehicle: saline with Tween-80
# [6] = dose: 120.0 mg/kg/injection, schedule: Q01DX005 (ip), vehicle: saline with Tween-80
# [7] = dose: 100.0 mg/kg/injection, schedule: Q01DX009 (ip), vehicle: saline with Tween-80
# [8] = dose: 200.0 mg/kg/injection, schedule: Q01DX009 (ip), vehicle: saline with Tween-80
smiles,measurement,setting,value
CN1CCC(=C(C#N)C#N)CC1,T/C,"dose: 25.0 mg/kg/injection, schedule: Q01DX009 (ip), vehicle: saline with Tween-80",120 % of control
same,T/C,[1],115 % of control
CCN1COc2ccc3ccc4c(c3c2C1)CN(CC)CO4,T/C,"dose: 50.0 mg/kg/injection, schedule: Q01DX005 (ip), vehicle: Klucel (hydroxypropylcellulose) (HPC)",101 % of control
same,T/C,"dose: 100.0 mg/kg/injection, schedule: Q01DX005 (ip), vehicle: Klucel (hydroxypropylcellulose) (HPC)",101 % of control
same,T/C,"dose: 200.0 mg/kg/injection, schedule: Q01DX005 (ip), vehicle: Klucel (hydroxypropylcellulose) (HPC)",102 % of control
CCNC(=O)OCc1c(COC(=O)NCC)c2n(c1C)CCc1ccccc1-2,T/C,"dose: 12.5 mg/kg/injection, schedule: Q01DX009 (ip), vehicle: distilled water + Tween-80",157 % of control and 185 % of control
same,T/C,"dose: 25.0 mg/kg/injection, schedule: Q01DX009 (ip), vehicle: distilled water + Tween-80",166 % of control
COC(=O)/C=C/CCOC1CCCCO1 (stereo not drawn),T/C,"dose: 50.0 mg/kg/injection, schedule: Q01DX009 (ip), vehicle: other",108 % of control
same,T/C,"dose: 100.0 mg/kg/injection, schedule: Q01DX009 (ip), vehicle: other",112 % of control
same,T/C,"dose: 200.0 mg/kg/injection, schedule: Q01DX009 (ip), vehicle: other",107 % of control
O=C(N=Nc1ccccc1)NC1CCCCC1,T/C,[2],100 % of control
same,T/C,[3],101 % of control
same,T/C,[4],100 % of control
CCc1cccc(C)c1NC(=O)C(=O)C(C#N)c1ccc(CC#N)cc1 (stereo not drawn),T/C,[5],101 % of control
same,T/C,[6],100 % of control
CN1CCC/C1=C\C(=O)c1ccco1,T/C,"dose: 15.0 mg/kg/injection, schedule: Q01DX005 (ip), vehicle: Klucel (hydroxypropylcellulose) (HPC)",100 % of control
same,T/C,"dose: 30.0 mg/kg/injection, schedule: Q01DX005 (ip), vehicle: Klucel (hydroxypropylcellulose) (HPC)",103 % of control
same,T/C,"dose: 60.0 mg/kg/injection, schedule: Q01DX005 (ip), vehicle: Klucel (hydroxypropylcellulose) (HPC)",109 % of control and 89 % of control
OCC1OC(n2cc(I)c3c2ncn2ccnc32)C(O)C1O (stereo not drawn),T/C,"dose: 1.56 mg/kg/injection, schedule: Q01DX009 (ip), vehicle: water",98 % of control
same,T/C,"dose: 3.13 mg/kg/injection, schedule: Q01DX009 (ip), vehicle: water",102 % of control
same,T/C,"dose: 6.25 mg/kg/injection, schedule: Q01DX009 (ip), vehicle: water",100 % of control
same,T/C,"dose: 12.5 mg/kg/injection, schedule: Q01DX009 (ip), vehicle: water",102 % of control
same,T/C,"dose: 25.0 mg/kg/injection, schedule: Q01DX009 (ip), vehicle: water",106 % of control
O=S(=O)(F)c1ccc2nc(-c3cccc(Sc4ccccc4)c3)cc(Cl)c2c1,T/C,[7],100 % of control
same,T/C,[8],95 % of control
same,T/C,"dose: 400.0 mg/kg/injection, schedule: Q01DX009 (ip), vehicle: saline with Tween-80",95 % of control
C=C[C@H]1[C@H](OC2OC(CO)C(O)C(O)C2O)OC=C2C(=O)N3CCc4c([nH]c5ccccc45)C3C[C@H]21 (stereo partly drawn),T/C,"dose: 100.0 mg/kg/injection, schedule: Q01DX001 (ip), vehicle: saline with Tween-80",107 % of control
same,T/C,"dose: 200.0 mg/kg/injection, schedule: Q01DX001 (ip), vehicle: saline with Tween-80",94 % of control
same,T/C,"dose: 400.0 mg/kg/injection, schedule: Q01DX001 (ip), vehicle: saline with Tween-80",89 % of control
O=C(O)c1n[nH]c2ccccc2c1=O,T/C,"dose: 1.56 mg/kg/injection, schedule: Q01DX009 (ip), vehicle: other",101 % of control
same,T/C,"dose: 3.13 mg/kg/injection, schedule: Q01DX009 (ip), vehicle: other",105 % of control
same,T/C,"dose: 6.25 mg/kg/injection, schedule: Q01DX009 (ip), vehicle: other",97 % of control
same,T/C,"dose: 12.5 mg/kg/injection, schedule: Q01DX009 (ip), vehicle: other",109 % of control
same,T/C,"dose: 25.0 mg/kg/injection, schedule: Q01DX009 (ip), vehicle: other",110 % of control and 90 % of control
CC(C)c1ccc(C(=O)O)cc1,T/C,[1],103 % of control
same,T/C,[7],103 % of control
same,T/C,[8],115 % of control
CC1=CC(C)(C)NN1C1=NS(=O)(=O)c2ccccc2N1C,T/C,[5],101 % of control
same,T/C,[6],97 % of control
same,T/C,"dose: 240.0 mg/kg/injection, schedule: Q01DX005 (ip), vehicle: saline with Tween-80",101 % of control
COc1ccc(-c2ccc(Cc3ccc(-c4ccc(OC)cc4)o3)o2)cc1,T/C,[2],94 % of control
same,T/C,[3],91 % of control
same,T/C,[4],91 % of control
